Results reported in publication PMC7177849, “Gut Microbial Catabolites of Tryptophan Are Ligands and Agonists of the Aryl Hydrocarbon Receptor: A Detailed Characterization” (International Journal of Molecular Sciences, 2020).
Like-named read-outs stand apart in the source and are kept apart here.

What was measured:
AhR [1] = test system: AhR; design: method as in PMID 27158904; details: IAA approx. 5000 µM; cited from earlier work
CYP1A1 mRNA [2] = experiment: CYP1A1 mRNA (qRT-PCR) in intestinal LS180 cells; format: cell-based, human; details: LS180 cells co-incubated with TCDD (10 nM), 24 h
Experimental: (§1) Figure 4 Effects of MICT on the induction of CYP1A1 mRNA in human hepatic and intestinal cells. Cultured cells were incubated for 24 h with the vehicle (DMSO; 0.1% v/v) and tested MICT in the presence or absence of TCDD (10 nM). RT-PCR determined the level of CYP1A1 mRNA, and the data were normalized per GAPDH mRNA level. […] (A,B) Experiments in three consecutive passages of human colon adenocarcinoma cell line LS180 in the absence (A) and the presence (B) of 10 nM TCDD. The bar graphs show the percentage of maximal induction attained by TCDD and are expressed as the mean ± SD. (C) Experiments in three consecutive passages of wild-type (AhR^+/^+) and AhR-knockout (AhR^−/^−) HT-29 cells. […] (D) Primary human hepatocytes from three different donors (LH79, Hep2201020, and Hep2201021).
(§2) Total RNA was isolated using TRI Reagent® (Sigma Aldrich, Prague, Czech Republic). cDNA was synthesized using M-MuLV reverse transcriptase (New England Biolabs, Ipswich, MA, USA). The reverse transcription was performed at 42 °C for 60 min using Random Primers 6 (New England Biolabs, Ipswich, MA, USA) and diluted in a 1:4 ratio by PCR-grade water. The quantitative reverse transcriptase-polymerase chain reaction (qRT-PCR) was performed on the Lightcycler 480 II using the LightCycler ® 480 Probes Master (Roche Diagnostic Corporation, Prague, Czech Republic). The levels of CYP1A1 and GAPDH mRNAs were determined using the Universal Probe Library probes (UPL; Roche Diagnostic Corporation, Prague, Czech Republic) in combination with specific primers, using a protocol described elsewhere. All measurements were performed in triplicates, and the gene expression was normalized to glyceraldehyde-3-phosphate dehydrogenase (GAPDH) as a house-keeping gene. The data were processed using the delta-delta Ct method and expressed as a fold induction over the negative control (DMSO) or as a percentage of the positive control (maximal induction by TCDD).

CYP1A1 mRNA [3] = experiment: Summary of CYP1A1 gene expression in human hepatic and intestinal cells; format: cell-based; details: for induction of CYP1A1 mRNA: 200 µM, LS180 cells, HT-29 cells, and primary human hepatocytes; for Gene Expression: Table 1 summary class, CYP1A1
Experimental: as §1, §2

mouse AhR = test system: mouse AhR; design: method as in PMID 9708986; details: cited from earlier work
CYP1A1 mRNA [4] = test system: CYP1A1 mRNA; design: method as in PMID 24563545; details: 100 µM IAA, cited from earlier work
guinea pig AhR = test system: guinea pig AhR; design: method as in PMID 9708986; details: cited from earlier work
AhR [5] = molecular target: T1, AhR (Homo sapiens, UniProt P35869); experiment: Reporter gene assay in AZ-AHR cells, agonist analyses (luciferase)
T1 sequence (P35869 11-848): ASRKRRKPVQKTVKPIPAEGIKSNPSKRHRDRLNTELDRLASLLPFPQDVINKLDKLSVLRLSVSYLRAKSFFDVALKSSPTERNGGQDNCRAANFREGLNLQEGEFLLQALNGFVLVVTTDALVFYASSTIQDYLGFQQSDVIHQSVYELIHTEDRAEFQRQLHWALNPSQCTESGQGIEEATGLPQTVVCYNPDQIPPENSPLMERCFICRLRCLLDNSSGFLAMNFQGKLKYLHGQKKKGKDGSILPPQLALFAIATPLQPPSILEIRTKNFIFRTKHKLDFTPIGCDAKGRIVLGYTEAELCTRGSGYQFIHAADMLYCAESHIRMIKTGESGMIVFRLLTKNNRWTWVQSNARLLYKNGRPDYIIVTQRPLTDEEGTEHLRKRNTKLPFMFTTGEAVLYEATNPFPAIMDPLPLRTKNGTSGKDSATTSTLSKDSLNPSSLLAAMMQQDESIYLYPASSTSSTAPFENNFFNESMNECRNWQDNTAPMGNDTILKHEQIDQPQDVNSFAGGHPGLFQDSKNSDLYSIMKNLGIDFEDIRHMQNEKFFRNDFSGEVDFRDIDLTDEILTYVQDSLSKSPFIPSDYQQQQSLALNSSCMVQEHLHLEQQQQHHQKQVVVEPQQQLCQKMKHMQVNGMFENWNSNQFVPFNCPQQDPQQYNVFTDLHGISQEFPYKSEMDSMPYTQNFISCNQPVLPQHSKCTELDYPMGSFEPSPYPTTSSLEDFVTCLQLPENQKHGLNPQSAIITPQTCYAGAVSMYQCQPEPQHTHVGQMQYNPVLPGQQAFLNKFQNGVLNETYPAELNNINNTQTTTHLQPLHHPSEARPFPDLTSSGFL
Experimental: (§3) In the first series of experiments, we evaluated the agonistic and antagonistic effects of MICT on the AhR activation. […] The antagonistic effects of MICT were evaluated against typical full agonists of the AhR, comprising TCDD, BaP, and FICZ, which were applied at fixed concentrations corresponding to their EC80.
(§4) Following the treatments, we lysed cells, and luciferase activity was measured. Experiments were performed at least in four consecutive cell passages. Incubations were performed in quadruplicates (technical replicates). In agonist analyses, the data from a representative experiment, expressed as a fold induction of luciferase activity over control cells, are shown. In antagonist analyses, the data are a percentage of maximal induction, and they are the mean ± SD.
(§5) Then, cells were lysed, and luciferase activity was measured using the Tecan Infinite M200 plate luminometer (Schoeller Instruments, Czech Republic). The experiments were performed in at least four consecutive cell passages, and the treatments were in quadruplicates (technical replicates). The values of half-maximal effective concentration (EC50) for each MICT, and half-maximal inhibitory concentration (IC50—where appropriate) were calculated.
Supplementary Figure 2. Tryptophan effects in culture medium on AhR activity. (A) Time-course of Trp
levels in culture media from hepatic (AZ-AHR), instestinal (LS174T) and skin (HaCaT) cells. Determined by
HPLC. (B) Induction of AhR-dependent luciferase activity in AZ-AHR cells incubated for 24 h with TCDD,
Indole and Trp in Trp/serum-free culture medium. (C) Induction of AhR-dependent luciferase activity in
AZ-AHR cells incubated for 24 h with TCDD and Indole in standard (+Trp/+FBS), serum-free (+Trp/-FBS),
Trp-free (-Trp/+FBS) and Trp/serum-free (-Trp/-FBS) culture medium. […]

AhR [6] = test system: AhR; design: method as in PMID 26235394; details: 10 µM IPA, HepG2 cells; cited from earlier work
AhR [7] = molecular target: T1, AhR; experiment: Reporter gene assay in AZ-AHR cells, antagonist analyses against TCDD, BaP, FICZ
Experimental: as §3
as §4, with “AZ-AHR cells were incubated for 24 h with vehicle (DMSO; 0.1% v/v) and increasing concentrations of MICT, in the absence (agonist analyses) or the presence (antagonist analyses) of TCDD (13.5 nM), BaP (15.8 µM) and FICZ (22.6 µM). Following” for “Following”
as §5, with “AZ-AHR cells were incubated for 24 h with vehicle (DMSO; 0.1% v/v) and increasing concentrations of tested MICT in the presence or absence of TCDD (13.5 nM), FICZ (22.6 µM), or BaP (15.8 µM). Then,” for “Then,”

murine AhR = molecular target: T2, murine AhR (Mus musculus, UniProt P30561); experiment: Competitive radio-ligand ([3H]-TCDD) AhR binding assay, cytosols from Hepa1c1c7 cells; details: data not shown
T2 sequence (P30561 10-805): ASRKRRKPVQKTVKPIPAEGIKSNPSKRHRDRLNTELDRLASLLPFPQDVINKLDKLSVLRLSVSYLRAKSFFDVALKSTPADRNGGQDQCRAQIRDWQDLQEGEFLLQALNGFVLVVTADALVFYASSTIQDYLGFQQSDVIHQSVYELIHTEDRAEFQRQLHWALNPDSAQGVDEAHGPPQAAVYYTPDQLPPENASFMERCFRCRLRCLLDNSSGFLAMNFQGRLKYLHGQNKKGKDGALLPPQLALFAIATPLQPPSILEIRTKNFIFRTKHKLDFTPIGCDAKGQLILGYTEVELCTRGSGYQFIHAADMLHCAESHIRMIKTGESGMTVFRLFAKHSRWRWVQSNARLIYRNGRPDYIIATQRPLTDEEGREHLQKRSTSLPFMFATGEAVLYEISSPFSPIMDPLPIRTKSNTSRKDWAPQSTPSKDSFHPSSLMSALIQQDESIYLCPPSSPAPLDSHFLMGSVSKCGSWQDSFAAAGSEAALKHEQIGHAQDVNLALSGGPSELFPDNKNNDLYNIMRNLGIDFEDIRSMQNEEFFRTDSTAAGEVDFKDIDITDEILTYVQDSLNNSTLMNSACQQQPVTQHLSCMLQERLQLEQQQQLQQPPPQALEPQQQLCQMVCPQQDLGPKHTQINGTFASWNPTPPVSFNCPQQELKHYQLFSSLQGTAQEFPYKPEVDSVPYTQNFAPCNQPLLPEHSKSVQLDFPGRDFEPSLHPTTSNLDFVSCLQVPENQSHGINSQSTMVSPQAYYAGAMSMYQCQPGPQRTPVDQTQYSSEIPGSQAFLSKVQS
Experimental: Figure 2 Competitive radio-ligand binding assay. Cytosols from Hepa1c1c7 cells were incubated with vehicle (negative control; 0.1% V/V), FICZ (positive control; 0.01 nM – 10 nM), TCDF (non-specific binding; 200 nM) and increasing doses of MICT in the presence of 2 nM [^3H]-TCDD. The specific binding of [^3H]-TCDD was determined as a difference between total and non-specific (200 nM; TCDF) reactions (value for vehicle DMSO; 0.1% V/V = corresponds to specific binding of [^3H]-TCDD = 100%). At least two independent experiments were performed and the incubations were done in triplicates in each experiment (technical replicates).
Ligand binding assay was performed using cytosolic protein extracts from murine Hepa1c1c7 cells as described. Briefly, aliquots of protein (2 mg/mL) were incubated at the room temperature for two (2) h with 2 nM [^3H]-TCDD in the presence of DMSO (vehicle control), FICZ (positive control), 200 nM TCDF (non-specific binding) or increasing concentration of MICT. After the incubation, the hydroxyapatite slurry was added to the samples and the suspension was incubated on ice and washed three times with HEGT buffer. The hydroxyapatite pellet was re-suspended in scintillation cocktail, and radioactivity was determined in a liquid scintillation counter. The specific binding of [^3H]-TCDD was determined by subtracting the radioactivity of non-specific reaction (TCDF) from total radioactivity. The values of IC50 were calculated where appropriate.

SMILES | activation of the AhR (AhR [1]) | antagonistic effects on CYP1A1 mRNA (CYP1A1 mRNA [2]) | induction of CYP1A1 mRNA (CYP1A1 mRNA [3]) | Gene Expression (CYP1A1 mRNA [3]) | concentration at which activation of AhR was described (mouse AhR) | induction of CYP1A1 mRNA (CYP1A1 mRNA [4]; Caco-2 and MDA-MB-231 cells) | induction of CYP1A1 mRNA (CYP1A1 mRNA [4]; MDA-MB-468 cells) | concentration at which activation of AhR was described (guinea pig AhR) | activation of AhR (AhR [5]; AZ-AHR cells, 200 µM) | fold induction of luciferase activity (efficacy) (AhR [5]; AZ-AHR cells, 24 h, up to 200 µM (IAC 100 µM, IND 10 mM), plateau not reached) | EC50 (AhR [5]; EC50, AZ-AHR cells, 24 h, agonist analyses) | Efficacy (EMAX) (AhR [5]; Table 1 summary class) | Potency (EC50) (AhR [5]; Table 1 summary class) | AhR activation (AhR [6]) | antagonistic effect against full agonists (AhR [7]; AZ-AHR cells, 24 h, TCDD, BaP and FICZ at EC80) | Antagonism (IC50) (AhR [7]; Table 1 summary class) | activation of AhR (AhR [5]) | displacement of 3H-TCDD from binding at the murine AhR (murine AhR)
O=C(O)Cc1c[nH]c2ccccc12 [IAA, indole-3-acetate] | 15 fold | to a lesser extent | no induction | inactive | 2 mM | ≈ 5 fold | not | 2 mM |  |  |  |  |  |  |  |  |  | 
O=C(O)CCc1c[nH]c2ccccc12 [IPA, indole-3-propionate] |  | to a lesser extent | no induction | inactive |  |  |  |  | negligible activation | ≈ 8 fold | 98.3 ± 5.72 µM | low | low | no AhR activation | no antagonistic effects | none |  | 
N[C@@H](Cc1c[nH]c2ccccc12)C(=O)O [Trp, tryptophan] |  |  |  |  |  |  |  |  |  |  |  |  |  |  |  |  | did not activate | did not displace
